ChEMBL document CHEMBL2331173, “Water-mediated interactions influence the binding of thapsigargin to sarco/endoplasmic reticulum calcium adenosinetriphosphatase” (J Med Chem, 2013)

target: Sarcoplasmic/endoplasmic reticulum calcium ATPase 1 (Oryctolagus cuniculus, UniProt P04191); assay: Binding affinity to SERCA1a in sarcoplasmic reticulum vesicles of rabbit skeletal muscle after 2.5 to 6 mins by spectrophotometric analysis; set-up: species or system Muscle tissue
Sequence (P04191 whole entry): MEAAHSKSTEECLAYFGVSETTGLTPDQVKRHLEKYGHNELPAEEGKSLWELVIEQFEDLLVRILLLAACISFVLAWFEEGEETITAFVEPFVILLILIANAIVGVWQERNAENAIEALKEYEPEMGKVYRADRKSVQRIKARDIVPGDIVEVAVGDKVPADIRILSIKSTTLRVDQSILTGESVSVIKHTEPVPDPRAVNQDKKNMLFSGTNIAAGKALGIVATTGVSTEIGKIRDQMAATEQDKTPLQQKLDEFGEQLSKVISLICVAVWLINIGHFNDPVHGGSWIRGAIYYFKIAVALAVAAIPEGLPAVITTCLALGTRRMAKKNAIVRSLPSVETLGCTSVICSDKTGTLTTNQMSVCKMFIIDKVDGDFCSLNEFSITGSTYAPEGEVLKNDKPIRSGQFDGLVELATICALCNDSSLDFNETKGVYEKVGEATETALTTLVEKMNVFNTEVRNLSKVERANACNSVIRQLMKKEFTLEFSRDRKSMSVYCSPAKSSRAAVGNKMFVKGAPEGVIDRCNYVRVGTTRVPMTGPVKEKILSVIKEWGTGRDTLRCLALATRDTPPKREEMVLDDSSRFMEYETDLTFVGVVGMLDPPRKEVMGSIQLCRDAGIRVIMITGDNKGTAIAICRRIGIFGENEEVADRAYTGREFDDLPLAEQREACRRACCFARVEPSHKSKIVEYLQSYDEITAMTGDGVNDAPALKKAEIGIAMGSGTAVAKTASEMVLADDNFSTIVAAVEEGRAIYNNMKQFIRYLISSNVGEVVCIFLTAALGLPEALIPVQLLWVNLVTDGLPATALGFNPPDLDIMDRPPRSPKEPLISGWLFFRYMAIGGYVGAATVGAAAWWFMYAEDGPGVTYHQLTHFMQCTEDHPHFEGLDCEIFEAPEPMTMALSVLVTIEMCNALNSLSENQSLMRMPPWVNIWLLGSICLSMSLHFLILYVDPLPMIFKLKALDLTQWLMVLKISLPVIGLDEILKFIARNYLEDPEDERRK

Going from `C/C=C(/C)C(=O)O[C@H]1C(C)=C2[C@H]([C@@H]1OC(=O)CCCCCCC)[C@@](C)(OC(=O)CCCCCCC)C[C@H](OC(=O)CCC)[C@@]1(O)[C@H]2OC(=O)[C@@]1(C)O` to `C/C=C(/C)C(=O)O[C@H]1C(C)=C2[C@H]([C@@H]1OC(=O)CCCCCCC)[C@@](C)(OC(C)=O)C[C@H](OC(=O)CCC)[C@@]1(OC(=O)CCCCCCC)[C@H]2OC(=O)[C@@]1(C)O`, the Kd rises from 2.5 nM to 55 nM (22-fold). The first binds more tightly here.

Going from `C/C=C(/C)C(=O)O[C@H]1C(C)=C2[C@H]([C@@H]1OC(=O)c1ccccc1)[C@@](C)(OC(C)=O)C[C@H](OC(=O)CCC)[C@@]1(O)[C@H]2OC(=O)[C@@]1(C)O` to `C/C=C(/C)C(=O)O[C@H]1C(C)=C2[C@H]([C@@H]1OC(=O)CCCCCCC)[C@@](C)(OC(C)=O)C[C@H](OC(=O)CCC)[C@@]1(O)[C@H]2OC(=O)[C@@]1(C)O` [THAPSIGARGIN], the Kd falls from 1.5 nM to 0.2 nM (7.5-fold).

`C/C=C(/C)C(=O)O[C@H]1C(C)=C2[C@H]([C@@H]1OC(=O)CCCCCCC)[C@@](C)(OC(C)=O)C[C@H](OC(=O)CCC)[C@@]1(OC(=O)CCC)[C@H]2OC(=O)[C@@]1(C)O` and `C/C=C(/C)C(=O)O[C@H]1C(C)=C2[C@H]([C@@H]1OC(=O)CCCCCCC)[C@@](C)(OC(C)=O)C[C@H](OC(=O)CCC)[C@@]1(OC(=O)CCCCC)[C@H]2OC(=O)[C@@]1(C)O` are within 1.5-fold of each other in Kd: 11 nM for the first, 8.5 nM for the second.

Going from `C/C=C(/C)C(=O)O[C@H]1C(C)=C2[C@H]([C@@H]1OC(=O)CCCCCCC)[C@@](C)(OC(C)=O)C[C@H](OC(=O)CCC)[C@@]1(OC(=O)C(C)C)[C@H]2OC(=O)[C@@]1(C)O` to `C/C=C(/C)C(=O)O[C@H]1C(C)=C2[C@H]([C@@H]1OC(=O)CCCCCCC)[C@@](C)(OC(C)=O)C[C@H](OC(=O)CCC)[C@@]1(OC(C)=O)[C@H]2OC(=O)[C@@]1(C)O`, the Kd falls from 13 nM to 2.6 nM (5-fold). The second binds more tightly here.

Going from `C/C=C(/C)C(=O)O[C@H]1C(C)=C2[C@H]([C@@H]1OC(=O)CCCCCCC)[C@@](C)(OC(C)=O)C[C@H](OC(=O)CCC)[C@@]1(O)[C@H]2O[C@H]2N=C(C)O[C@]21C` to `C/C=C(/C)C(=O)O[C@H]1C(C)=C2[C@H]([C@@H]1OC(=O)CCCCCCC)[C@@](C)(OC(C)=O)C[C@H](OC(=O)CCC)[C@@]1(O)[C@H]2O[C@H]2N=C(CCC)O[C@]21C`, the Kd rises from 1.7 nM to 20 nM (12-fold). The first binds more tightly here.

First: C/C=C(/C)C(=O)O[C@H]1C(C)=C2[C@H]([C@@H]1OC(=O)CCCCCCC)[C@@](C)(OC(C)=O)C[C@H](OC(=O)CCC)[C@@]1(O)[C@H]2O[C@H]2N=C(CCOCC)O[C@]21C
Second: C/C=C(/C)C(=O)O[C@H]1C(C)=C2[C@H]([C@@H]1OC(=O)CCCCCCC)[C@@](C)(OC(C)=O)C[C@H](OC(=O)CCC)[C@]13O[C@]1(C)C(=O)O[C@@H]23
The Kd of the first is 6.1-fold higher: 79 nM for the first, 13 nM for the second.

`C/C=C(/C)C(=O)O[C@H]1C(C)=C2[C@H]([C@@H]1OC(=O)CCCCCCC)[C@@](C)(OC(C)=O)C[C@H](OC(=O)CCC)[C@@]1(O)[C@H]2O[C@H](OC(C)=O)[C@@]1(C)OC(C)=O` (relative stereo) and `C/C=C(/C)C(=O)O[C@H]1C(C)=C2[C@H]([C@@H]1OC(=O)CCCCCCC)[C@@](C)(OC(C)=O)C[C@H](O)[C@@]1(O)[C@H]2OC(=O)[C@@]1(C)O` [DEBUTANOYLTHAPSIGARGIN] are within 1.5-fold of each other in Kd: 9.4 nM for the first, 10 nM for the second.
